Measured values: PubChem BioAssay AID179 (DTP/NCI, 2004)
Activity calls are given as the source filed them.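 Rule for the calls: active = compounds giving half or more protection of infected cells from virus-caused growth loss, again on retest; inactive = the rest.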

Test system: CEM cells HIV-1 protection, formazan growth assay
Assay: NCI AIDS Antiviral Assay
Conditions: for IC50: measured here: growth of uninfected CEM cells
Summary of the method: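 Soluble formazan readout of cell growth; CEM cells ± HIV-1; 5 drug concs. ≥50% protection → retest; ≥50% again = moderately active; reproducible 100% = confirmed active.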

COc1ccc(C2CC(=O)c3c(O)cc(OC4OC(COC5OC(C)C(O)C(O)C5O)C(O)C(O)C4O)cc3O2)cc1O (stereo unspecified)
EC50: 138 µM | IC50: 191 µM

COc1ccc(/C(Cl)=C(\C#N)c2ccc(OC)c(OC)c2)cc1OC
EC50: > 200 µM | IC50: 58.9 µM

CC1=CC2(O)OC3(CC2=C(C)C)C(C)CCC13 (stereo unspecified)
EC50: > 200 µM | IC50: > 200 µM

Cc1cc(NS(=O)(=O)c2ccc(NC(=O)c3cccc4c(N)c5ccccc5nc34)cc2)no1
EC50: > 93.3 µM | IC50: 43.7 µM

OC[C@@H](O)[C@@H](O)c1cnn(-c2ccccc2)n1
EC50: > 200 µM | IC50: > 200 µM

C=CC1(O)CCCC=C1COCc1ccccc1 (stereo unspecified)
EC50: > 200 µM | IC50: 33.1 µM

Nc1ncnc2c1ncn2C1OC(CO)(C(F)(F)F)C(O)C1O (stereo unspecified)
EC50: > 200 µM | IC50: 182 µM

O=C1C2=C(C(c3ccccc3)=C1c1ccccc1)c1ccccc1C1(c3ccccc3)C2=C(O)C(c2ccccc2)=C1c1ccccc1 (stereo unspecified)
outcome: inactive

N#Cc1ccc(CSc2ncnc3nc[nH]c23)cc1
EC50: > 200 µM | IC50: 81.3 µM

CC(=O)NC(=O)NC1=NCCC(=O)N1CCc1c[nH]c2ccccc12
EC50: > 200 µM | IC50: > 200 µM

N#Cc1c(=O)c2cc([N+](=O)[O-])ccc2n2c1[nH]c1ccccc12
EC50: > 200 µM | IC50: 3.55 µM

O=[N+]([O-])c1cc(Br)cc2cc(Cl)cnc12
outcome: inactive

C[C@H](OCc1ccccc1)C(=O)N1CCS(=O)(=O)N2CCC[C@H]2C1=O
EC50: > 676 µM | IC50: > 676 µM

NC(=O)c1cc(O)c(O)c(O)c1
EC50: > 200 µM | IC50: 17 µM

NC(=O)C(=O)C1C(=O)N(c2ccccc2)N=C1N (stereo unspecified)
outcome: inactive

O=C(O)c1cc(Sc2ccc([N+](=O)[O-])c(C(=O)O)c2)ccc1[N+](=O)[O-]
EC50: > 200 µM | IC50: > 200 µM

CCOC(=O)/N=c1/nc2ccn(C)c2c(NC(=O)OCC)s1
EC50: > 209 µM | IC50: > 209 µM

CN(C)CCNc1nc2c(no[n+]2[O-])c2ccccc12
EC50: > 200 µM | IC50: 9.33 µM

Oc1cc(-c2ccccc2)cn2c1nc1ccccc12
EC50: > 200 µM | IC50: 1.07 µM

COc1ccc(-c2nc(-c3cc4ccccc4oc3=O)cs2)cc1
EC50: > 100 µM | IC50: > 100 µM

CC(=O)[O-].[O-]c1c(Cl)cc(Cl)cc1/C=N/Nc1ccccn1.[Zn+2]
outcome: inactive

CN1C=COC1N=C1CCCCC1 (stereo unspecified)
EC50: > 200 µM | IC50: > 200 µM

CC(C)(Oc1ccc(C(=O)c2ccc(Cl)cc2)cc1Cl)C(=O)Nc1c(Cl)cccc1Cl
EC50: > 7.59 µM | IC50: > 7.59 µM

CC1Sc2ccccc2-c2[nH]c3ccccc3c21 (stereo unspecified)
EC50: > 200 µM | IC50: 10.2 µM

COc1ccc(OC)c(C(Nc2ccc3cn[nH]c3c2)P(=O)(c2ccccc2)c2ccccc2)c1 (stereo unspecified)
outcome: inactive

COC(NC(=O)Nc1ccccc1C)(C(F)(F)F)C(F)(F)F
EC50: > 200 µM | IC50: 57.5 µM

Cc1ccc2c(c1)nc1c3ccccc3nnn21
EC50: > 16.2 µM | IC50: > 16.2 µM

OC12c3ccccc3C1(N1CCOCC1)CCCCC21OCCCO1 (stereo unspecified)
EC50: 170 µM | IC50: 295 µM

O=C1Cc2nc(CO)c(CO)c(CO)c2CO1
EC50: > 1050 µM | IC50: > 1050 µM

COc1ccc(S(=O)(=O)NNS(C)(=O)=O)cc1OC
EC50: > 40.7 µM | IC50: > 40.7 µM

COc1ccc(C(=O)Nc2ccc(S(=O)(=O)c3ccc(NC(=O)c4ccccc4SSc4ccccc4C(=O)Nc4ccc(S(=O)(=O)c5ccc(NC(=O)c6ccc(OC)cc6)cc5)cc4)cc3)cc2)cc1
EC50: 16.6 µM | IC50: 151 µM

CC(=O)OCCN1CCOC(O)(c2cccc(C(F)(F)F)c2)C1 (stereo unspecified)
EC50: > 200 µM | IC50: 117 µM

O=Cc1[nH]c(=O)[nH]c(=O)c1CCl
EC50: > 200 µM | IC50: 35.5 µM

OC(CC(CC(O)(C(F)(F)Cl)C(F)(F)Cl)=NNc1ccccc1)(C(F)(F)Cl)C(F)(F)Cl
EC50: > 200 µM | IC50: 2.14 µM

COc1ccc(NC(=O)CC(=O)N2N=C(C)C(N=Nc3ccc(S(=O)(=O)c4ccc(N=NC5C(=O)N(C(=O)CC(=O)Nc6ccc(OC)cc6)N=C5C)cc4)cc3)C2=O)cc1 (stereo unspecified)
EC50: > 100 µM | IC50: 95.5 µM

CC1=NN(C2=NS(=O)(=O)c3ccccc3N2C)C(=O)C1
EC50: > 123 µM | IC50: > 123 µM

N#CCCN1C(=O)CCC2(CCC(=O)N(CCC#N)C2=O)C1=O
EC50: > 794 µM | IC50: > 794 µM

C#CCN(CCC)C(=O)COc1cc2c(O)c3c(O)c(C)c4c(c13)C(=O)C(C)(O/C=C/C(OC)C(C)C(OC(C)=O)C(C)C(O)C(C)C(O)C(C)/C=C/C=C(\C)C(=O)N2)O4 (stereo unspecified)
EC50: > 200 µM | IC50: 39.8 µM

O=C(CN(Cc1ccccc1)Cc1ccccc1)N1CCc2c([nH]c3ccccc23)C1c1cccnc1 (stereo unspecified)
EC50: > 5.62 µM | IC50: > 5.62 µM

N#CCCN(CCC#N)c1ccc(/C=C2\SC(=S)NC2=O)cc1
EC50: > 200 µM | IC50: > 200 µM

COc1cccc(/C=C2\CCCc3ccccc3C2=O)c1
EC50: > 200 µM | IC50: 26.3 µM

Cn1c(CNc2ccc(-c3n[nH]c(=S)n3C)cc2)n[nH]c1=S
EC50: > 200 µM | IC50: > 200 µM

Nc1c(Cl)cccc1-c1c[nH]c(Cl)c1Cl
EC50: > 138 µM | IC50: 72.4 µM

N/C(=N\N=C\c1ccc(C(F)(F)F)cc1)NO
EC50: > 427 µM | IC50: > 427 µM

CCCCCSP(=S)(C(C)C)C(C)C
EC50: > 200 µM | IC50: 115 µM

CNC/C(Cl)=N/S(=O)(=O)c1ccc(C)cc1
EC50: > 58.9 µM | IC50: 2.75 µM

Cc1ccc(/C(C#N)=C/c2ccc3c(c2)OCO3)cc1
EC50: > 200 µM | IC50: 10 µM

NC1=NS(=O)(=O)Nc2nc(-c3ccccc3)[nH]c21
EC50: > 20 µM | IC50: > 20 µM

CC(C)(C)OC(=O)N1CCc2[nH][nH]c(=O)c2C1
EC50: > 200 µM | IC50: > 200 µM

CCOC(=O)/C=C/CCC(C)(C)COC(C)=O
outcome: inactive

CC(=O)O/C(=C(/C#N)C(=O)O)C1C(C(=O)O)C(c2ccccc2[N+](=O)[O-])C=C(c2ccco2)N1c1ccncc1 (stereo unspecified)
EC50: > 20 µM | IC50: 2.4 µM

CCCC(=O)Nc1ccc2c(ccn2COC)c1
EC50: > 200 µM | IC50: > 200 µM

COc1cc2c(cc1O)C1C(O)C(O)C=C3CCN(C2)C31 (stereo unspecified)
outcome: inactive

O=c1nc2n(c3nsnc13)CCO2
EC50: > 132 µM | IC50: > 132 µM

COC1/C=C/OC2(C)Oc3c(C)c(O)c4c(O)c(c(/C=N/OCCN5CCCCC5)c(O)c4c3C2=O)NC(=O)C(C)=C/C=C/C(C)C(O)C(C)C(O)C(C)C(OC(C)=O)C1C (stereo unspecified)
EC50: > 100 µM | IC50: 28.2 µM

Cn1c(=O)cc(NCCc2ccccc2)[nH]c1=O
EC50: > 200 µM | IC50: 17.4 µM

N#CC(C(=O)C(N)=O)c1ccccc1Cl (stereo unspecified)
EC50: > 427 µM | IC50: > 427 µM

CCC12CCCN(Cc3ccccc3)C1c1c(n(C)c3ccccc13)[C@H](C(=O)OC)C2 (stereo partly specified)
EC50: > 12.6 µM | IC50: > 12.6 µM

Nc1nc(Cl)c2ncn(C3OC(CO)CC3F)c2n1 (stereo unspecified)
EC50: > 49 µM | IC50: > 49 µM

CN(C)CCC(O)(Cc1ccccc1)c1ccco1 (stereo unspecified)
EC50: > 200 µM | IC50: 34.7 µM

Clc1ccc(COC(Cn2ccnc2)c2ccc(Cl)cc2Cl)c(Cl)c1 (stereo unspecified)
EC50: > 200 µM | IC50: 14.1 µM

C=C(Br)CN(C#N)CC(=C)Br
EC50: > 200 µM | IC50: > 200 µM

COc1ccc(-c2csc(=Nc3ccccc3)n2CC(O)c2ccc([N+](=O)[O-])cc2)cc1 (stereo unspecified)
EC50: > 200 µM | IC50: 38 µM

Cc1ncc([N+](=O)[O-])n1CCNC(=O)Cn1c([N+](=O)[O-])cnc1C
EC50: > 200 µM | IC50: > 200 µM
